Experimental data: patent US7534814B2, “Mutilin derivatives and their use as antibacterials” (Nabriva Therapeutics AG, priority 1999, dated 2009)
Values after ≈ are worked out from the molar mass of the structure shown. Where two headings read alike, the source gives them in different places. Values belong to the molecule of their own block, whether it stands above or below them.

What was measured:
Assay type in all cases: cell-based
[1] = test system: Staphylococcus aureus MRSA; experiment: MIC in Agar Dilution Test or Micro Dilution Test (NCCLS M7-A4)
Description: (§1) For example, the active compounds of the present invention show antimicrobial, e.g. antibacterial activity against gram negative bacterias, such as Escherichia coli; and against gram positive bacteria, such as Staphylococcus aureus, Streptococcus pyogenes, Streptococcus pneumonlae, Mycoplasms, Chlamydia and obligatory anaerobes, e.g. Bacteroides fragilis; in vitro in the Agar Dilution Test or Microdilution Test according to National Commitee for Clinical Laboratory Standards (NCCLS) 1997, Document M7-A4 Vol.17, No. 2: “Methods for dilution Antimicrobial Susceptibility Tests for Bacteria that Grow Aerobically—Fourth Edition, Approved Standard”; and e.g. in vivo in systemic infections in mice.
(§2) The active compounds of the invention show an surprising overall activity spectrum. For example, it has been determined that the active compounds of the present invention show surprising activity in vitro against Enterococcus faecium, including vancomycin-resistant strains; against Staphylococcus aureus including methicillin sensitive (MSSA) and methicdllin-resistant (MRSA) strains; and against Streptococcus pneumoniae including penicillin-resistant strains; e.g. in the Agar Dilution Test or in the Micro Dilution Test in Mueller-Hinton agar or Mueller-Hinton broth with or without supplements according to the approved standard reference methods of the National Committee for Clinical Laboratory Standards (NCCLS), Document M7-A4 for aerobic bacteria.

[2] = test system: Staphylococcus aureus MSSA; experiment: as above; settings: examples tested in the form of a hydrochloride
Description: as §1, §2

[3] = test system: penicillin-resistant Streptococcus pneumoniae; experiment: as above
Description: as §1, §2

[4] = test system: Enterococcus faecalis strain ATCC 29212; experiment: MIC in Agar Dilution Test or Microdilution Test; settings: examples tested in the form of an hydrochloride
Description: as §1

Compound: C=C[C@]1(C)C[C@@H](OC(=O)CSc2cccc(NC(=O)[C@H]3CCCCN3)c2)[C@]2(C)[C@H](C)CC[C@]3(CCC(=O)[C@H]32)[C@@H](C)[C@@H]1O [Example 1]
- MIC [1]: ≤ 0.0125 µg/mL
- MIC [2]: ca. 0.025 μg/ml

Compound: C=C[C@]1(C)C[C@@H](OC(=O)CSc2cccc(N)c2)[C@]2(C)[C@H](C)CC[C@]3(CCC(=O)[C@H]32)[C@@H](C)[C@@H]1O [Example 52, 14-O-[(3-Amino-phenylsulfanyl)acetyl]mutilin]
- MIC [2]: ca. 0.025 μg/ml

- MIC ([1]; read-out: MIC): > 25.6 µg/mL
- MIC ([2]; read-out: MIC): ~1.6 µg/mL (≈ 2.14 µM)
- MIC [3]: > 2.56 µg/mL
Compound: CC[C@H]1OC(=O)[C@H](C)[C@@H](O[C@H]2C[C@@](C)(OC)[C@@H](O)[C@H](C)O2)[C@H](C)[C@@H](O[C@@H]2O[C@H](C)C[C@H](N(C)C)[C@H]2O)[C@](C)(O)C[C@@H](C)CN(C)[C@H](C)[C@@H](O)[C@]1(C)O [azithromycin]

- MIC [4]: ca. 1.6 μg/ml
Compound: CC[C@H]1OC(=O)[C@H](C)[C@@H](O[C@H]2C[C@@](C)(OC)[C@@H](O)[C@H](C)O2)[C@H](C)[C@@H](O[C@@H]2O[C@H](C)C[C@H](N(C)C)[C@H]2O)[C@](C)(O)C[C@@H](C)C(=O)[C@H](C)[C@@H](O)[C@]1(C)O [erythromycin A]
